Source: ChEMBL document CHEMBL2331129, “Development and characterization of monomeric N-end rule inhibitors through in vitro model substrates” (J Med Chem, 2013)
Calls of active or inactive are those of the source. The calls are words filed in the database; no cut-off is given here.

Assays:
Oryctolagus cuniculus [1] = species on record: Oryctolagus cuniculus; assay: Inhibition of UBR protein in rabbit reticulocyte lysates assessed as inhibition of Arg-nsP4 substrate degradation at 2 mM by SDS-PAGE in presence of bestatin
Oryctolagus cuniculus [2] = species on record: Oryctolagus cuniculus; assay: Inhibition of UBR protein in rabbit reticulocyte lysates assessed as inhibition of Arg-nsP4 substrate degradation at 2 mM after 30 mins by Western blot analysis
Oryctolagus cuniculus [3] = species on record: Oryctolagus cuniculus; assay: Inhibition of UBR protein in rabbit reticulocyte lysates assessed as inhibition of RGS4 substrate degradation at 2 mM after 30 to 60 mins in presence of bestatin
[4] = Inhibition of UBR protein in rabbit reticulocyte lysates assessed as inhibition of Arg-nsP4 substrate degradation by in vitro synthesis/degradation assay; design: species or system Oryctolagus cuniculus
[5] = Inhibition of UBR protein in rabbit reticulocyte lysates assessed as inhibition of Tyr-nsP4 substrate degradation by in vitro synthesis/degradation assay; design: species or system Oryctolagus cuniculus
Oryctolagus cuniculus [6] = species on record: Oryctolagus cuniculus
Description: Inhibition of UBR protein in rabbit reticulocyte lysates assessed as inhibition of Tyr-nsP4 substrate degradation measuring substrate half life at 2 mM

Oryctolagus cuniculus [7] = species on record: Oryctolagus cuniculus; assay: Inhibition of UBR protein in rabbit reticulocyte lysates assessed as inhibition of Arg-nsP4 substrate degradation at 1 mM after 30 mins by Western blot analysis
Oryctolagus cuniculus [8] = species on record: Oryctolagus cuniculus; settings: at 2 mM
Description: Inhibition of UBR protein in rabbit reticulocyte lysates assessed as inhibition of Tyr-nsP4 substrate degradation at 2 mM by immunoblotting analysis in presence of bestatin

Oryctolagus cuniculus [9] = species on record: Oryctolagus cuniculus; settings: at 2 mM; remark: listed apart in the source
Description: Inhibition of UBR protein in rabbit reticulocyte lysates assessed as inhibition of Tyr-nsP4 substrate degradation at 2 mM

Oryctolagus cuniculus [10] = species on record: Oryctolagus cuniculus; assay: Inhibition of UBR protein in rabbit reticulocyte lysates assessed as inhibition of Arg-nsP4 substrate degradation at 6 mM by SDS-PAGE in presence of bestatin

SMILES | inhibition (Oryctolagus cuniculus [8]) | inhibition (Oryctolagus cuniculus [9]) | also measured
C[C@H](NC(=O)[C@@H](N)CCCN=C(N)N)C(=O)O |  |  | inhibition (Oryctolagus cuniculus [1]): Active; inhibition (Oryctolagus cuniculus [2]): Active; inhibition (Oryctolagus cuniculus [3]): Active; IC50 [4]: 1200 µM
CC(N)Cc1ccc(Cl)cc1 (configuration not stated) | Active |  | IC50 [5]: 1170 µM; T1/2 (Oryctolagus cuniculus [6]): 1.05 h; inhibition (Oryctolagus cuniculus [7]): Active; IC50 [4]: 935 µM
CC(=O)N[C@@H](Cc1ccccc1)C(=O)O | inactive | inactive | 
CC(=O)N[C@@H](Cc1ccccc1)C(N)=O | inactive | inactive | 
CCCCCNC(=O)[C@@H](N)Cc1ccccc1 | Active | Active | 
N[C@@H](Cc1ccccc1)C(=O)NCCCP(=O)(O)O | Active | Active | 
C[C@H](NC(=O)[C@H](N)CCCNC(=N)N)C(=O)O |  |  | inhibition (Oryctolagus cuniculus [10]): inactive; inhibition (Oryctolagus cuniculus [3]): inactive
CC(=O)N[C@@H](Cc1ccccc1)C(=O)N[C@@H](C)C(=O)O | inactive |  | 
NC(N)=NCCC[C@H](N)C(=O)N[C@@H](Cc1ccccc1)C(=O)O |  |  | inhibition (Oryctolagus cuniculus [3]): Active
N[C@@H](Cc1ccccc1)C(=O)NCCC(=O)O | Active | Active | 
N[C@@H](Cc1ccccc1)C(=O)NCCCCC(=O)O | Active | Active | 
N=C(N)NCCC[C@@H](N)C(=O)N[C@@H](Cc1ccccc1)C(=O)O |  |  | inhibition (Oryctolagus cuniculus [3]): inactive
CC(N)Cc1ccccc1 (configuration not stated) | Active |  | 
NC(=O)[C@@H](N)Cc1ccccc1 | inactive | Active | 
COC(=O)CCCCNC(=O)[C@@H](N)Cc1ccccc1 | Active | Active | 
C[C@H](NC[C@@H](N)Cc1ccccc1)C(=O)O | inactive |  | 
